Measured values published in paper PMC11941704 (Current Issues in Molecular Biology, 2025).
Where “and” joins values, the source holds several entries; their conditions need not be identical. Equal values may be shown once. Read-outs that look alike come from different tables or passages of the source.

Key:
[1] = test system: C. perfringens neuraminidase; format: biochemical, Clostridium perfringens; settings: for IC50: read-out: IC50 Value C. perfringen Neuraminidase
[2] = test system: SARS-CoV-2 spike protein–human ACE2 interaction; format: binding, SARS-CoV-2 / human
[3] = target: T1, SARS-CoV-2 main protease (Severe acute respiratory syndrome coronavirus 2, UniProt P0DTD1); test: biochemical; format: biochemical; settings: for IC50: IC50 Value SARS-CoV-2 Main Protease
[4] = target: T1, SARS-CoV-2 main protease; settings: read-out: IC50 Value SARS-CoV-2 Main Protease; cited from earlier work

Row | SMILES | Potency Index*, bacterial neuraminidase, compared to std influenza A [1] | Potency Index, bacterial (C. perfringens) neuraminidase [1] | IC50 [1] | Potency Index, SARS-CoV-2 spike protein [2] | Ratio, SARS-CoV2 spike protein [2] | inhibition at 100 µg/mL [3] | IC50 [3] | Potency Index, SARS-CoV-2 main protease [3] | % Inhibition SARS-CoV-2 Spike Protein–Human ACE2 Interaction [2] | % Inhibition C. perfringen Neuraminidase [1] | IC50 [4]
1 | CCCCCc1cc(O)c2c(c1)OC1(C)CCC3C1C2C3(C)C (centres unmarked) [CBL, cannabicyclol] | 96.12 | 8.75 | 96.1 µM | 54.53 | 1.55 | > 80% | 5.67 µM |  |  |  | 
2 | C=C(C)C1CCC(C)(O)C2Oc3cc(CCCCC)cc(O)c3C12 (centres unmarked) [CBE, cannabielsoin] |  |  |  | 35.75 | 1.36 | 80.3% |  | 100 |  |  | 
3 | CCCCCc1cc(O)c(C/C=C(\C)CCC=C(C)C)c(O)c1 [CBG, cannabigerol] | 6.92 | 0.63 | 6.9 µM and 6.92 µM | 2.46 | 1.02 | > 80% | 5.68 µM |  | 97.60 (± 4.16) % |  | 
4 | CCCCCc1cc(O)c2c(c1)oc1c(C)ccc(C(C)C)c12 [CBF, cannabifuran] |  |  |  |  | 1.01 | 65.3% |  | 100 | 99.22 (± 1.36) % |  | 
5 | COc1cc(O)c2c(c1)O[C@H](c1ccccc1)CC2=O [pinostrobin, reference compound] |  |  |  |  |  |  |  |  | 100% |  | 
6 | O=c1c(O)c(-c2ccc(O)c(O)c2)oc2cc(O)cc(O)c12 [quercetin, reference compound] |  |  | ~11 µM and 11 µM |  |  |  |  |  |  |  | 
7 | CCCCCc1cc(O)c2c(c1)OC(C)(CCC=C(C)C)C=C2 (centres unmarked) [CBC, cannabichromene] | 56.89 | 5.18 | 56.9 µM | 4.99 | 1.05 | 75% |  | 100 | 95.25 (± 4.54) % |  | 
8 | CCCCCc1cc(O)c2c(c1)OC(C)(C)c1ccc(C)cc1-2 [CBN, cannabinol] | 100.00 | 100 |  | 39.18 | 1.39 |  |  | 100 |  | 34.87 (± 3.08) % | 
9 | CCCCCc1cc(O)c2c(c1)OC(C)(C)[C@@H]1CCC(C)=C[C@@H]21 [THC, tetrahydrocannabinol, reference compound] | 20.30 | 1.85 | ~20.3 µM and 20.3 µM | 72.94 | 1.73 |  |  | 38.64 |  |  | 16.2 µM
10 | C=C(C)[C@@H]1CCC(C)=C[C@H]1c1c(O)cc(CCCCC)cc1O [CBD, cannabidiol, reference compound] | 4.53 | 0.41 | 4.5 µM and 4.53 µM | 77.62 | 1.78 |  |  | 4.43 |  |  | 1.86 µM
